From ChEMBL document CHEMBL4000220, “Optimization of spirocyclic proline tryptophan hydroxylase-1 inhibitors” (Bioorg Med Chem Lett, 2017)

What was measured:
[1] = system: Rattus norvegicus; assay: Clearance in rat at 1 mg/kg, iv relative to hepatic blood flow; type: ADME, organism-based; conditions: in vivo
[2] = system: Rattus norvegicus; assay: Volume of distribution at steady state in rat at 1 mg/kg, iv; type: ADME, organism-based; conditions: in vivo
[3] = system: Rattus norvegicus; assay: Half life in rat at 1 mg/kg, iv; type: ADME, organism-based; conditions: in vivo
[4] = target: T1, Tryptophan 5-hydroxylase 2 (Homo sapiens, UniProt Q8IWU9); assay: Inhibition of TPH2 (unknown origin)
T1 sequence (Q8IWU9 whole entry): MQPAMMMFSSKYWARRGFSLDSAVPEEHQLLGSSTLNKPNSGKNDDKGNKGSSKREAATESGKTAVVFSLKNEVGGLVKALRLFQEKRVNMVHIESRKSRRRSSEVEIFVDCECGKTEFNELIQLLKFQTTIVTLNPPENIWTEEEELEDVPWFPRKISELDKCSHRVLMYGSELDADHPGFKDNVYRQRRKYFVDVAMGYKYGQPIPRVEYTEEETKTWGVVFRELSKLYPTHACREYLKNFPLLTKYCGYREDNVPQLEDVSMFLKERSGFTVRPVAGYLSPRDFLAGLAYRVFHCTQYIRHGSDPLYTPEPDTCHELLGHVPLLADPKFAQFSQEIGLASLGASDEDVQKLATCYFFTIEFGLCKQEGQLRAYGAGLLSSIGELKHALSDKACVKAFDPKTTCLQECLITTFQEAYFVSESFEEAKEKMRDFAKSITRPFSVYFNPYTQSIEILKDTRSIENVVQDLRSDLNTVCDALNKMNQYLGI

[5] = Clearance in beagle dog at 1 mg/kg, iv; type: ADME, organism-based, Canis lupus familiaris; conditions: in vivo
[6] = system: Canis familiaris; assay: Clearance in beagle dog at 1 mg/kg, iv relative to hepatic blood flow; type: ADME, organism-based, Canis lupus familiaris; conditions: in vivo
[7] = Half life in beagle dog at 1 mg/kg, iv; type: ADME, organism-based, Canis lupus familiaris; conditions: beagle, in vivo
[8] = Volume of distribution at steady state in beagle dog at 1 mg/kg, iv; type: ADME, organism-based, Canis lupus familiaris; conditions: beagle, in vivo, read-out: Vdss
[9] = system: Mus musculus; assay: Drug level in mouse treated with (S)-ethyl 8-(2-amino-6-((R)-1-(5-chlorobiphenyl-2-yl)-2,2,2-trifluoroethoxy)pyrimidin-4-yl)-2,8-diazaspiro[4.5]decane-3-carboxylate at 10 to 50 mg/kg, po administered as single dose; type: ADME, organism-based; conditions: in vivo
[10] = target: T2, Tryptophan 5-hydroxylase 1 (Homo sapiens, UniProt P17752)
T2 sequence (P17752 whole entry): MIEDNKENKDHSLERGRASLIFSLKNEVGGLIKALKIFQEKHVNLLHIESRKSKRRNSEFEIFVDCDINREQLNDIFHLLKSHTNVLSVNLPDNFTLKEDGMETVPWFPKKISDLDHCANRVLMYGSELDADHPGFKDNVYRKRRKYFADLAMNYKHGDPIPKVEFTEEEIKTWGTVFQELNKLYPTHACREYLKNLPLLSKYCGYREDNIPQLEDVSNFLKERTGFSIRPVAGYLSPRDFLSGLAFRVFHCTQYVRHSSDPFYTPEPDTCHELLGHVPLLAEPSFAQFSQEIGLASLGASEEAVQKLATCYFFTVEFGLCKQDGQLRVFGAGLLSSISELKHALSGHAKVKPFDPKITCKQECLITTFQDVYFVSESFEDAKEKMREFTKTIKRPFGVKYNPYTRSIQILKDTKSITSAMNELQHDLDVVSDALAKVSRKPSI
Description: Inhibition of TPH1 (unknown origin)

[11] = system: Mus musculus; assay: Drug level in mouse treated with (S)-ethyl 8-(2-amino-6-((R)-1-(5-chloro-3'-(methylsulfonyl)biphenyl-2-yl)-2,2,2-trifluoroethoxy)pyrimidin-4-yl)-2,8-diazaspiro[4.5]decane-3-carboxylate at 10 to 50 mg/kg, po administered as single dose; type: ADME, organism-based; conditions: in vivo
[12] = system: Mus musculus; assay: In vivo inhibition of TPH1 in mouse assessed as reduction in 5-HT level in intestinal mucosa at 50 mg/kg, po administered daily as single dose relative to control; type: functional
[13] = system: Mus musculus; assay: Prodrug activation in mouse assessed as (S)-8-(2-amino-6-((R)-1-(5-chloro-3'-(methylsulfonyl)biphenyl-2-yl)-2,2,2-trifluoroethoxy)pyrimidin-4-yl)-2,8-diazaspiro[4.5]decane-3-carboxylic acid formation at 10 to 50 mg/kg, po administered as single dose; type: organism-based; conditions: in vivo
[14] = system: Mus musculus; assay: Drug level in mouse treated with (S)-ethyl 8-(2-amino-6-((R)-1-(5-chloro-3'-methoxybiphenyl-2-yl)-2,2,2-trifluoroethoxy)pyrimidin-4-yl)-2,8-diazaspiro[4.5]decane-3-carboxylate at 10 to 50 mg/kg, po administered as single dose; type: ADME, organism-based; conditions: in vivo
[15] = system: Mus musculus; assay: Drug level in mouse treated with (S)-ethyl 8-(2-amino-6-((R)-1-(5-chloro-3'-methylbiphenyl-2-yl)-2,2,2-trifluoroethoxy)pyrimidin-4-yl)-2,8-diazaspiro[4.5]decane-3-carboxylate at 10 to 50 mg/kg, po administered as single dose; type: ADME, organism-based; conditions: in vivo
[16] = system: Mus musculus; assay: Drug level in mouse treated (S)-ethyl 8-(2-amino-6-((R)-1-(5-chloro-3'-fluorobiphenyl-2-yl)-2,2,2-trifluoroethoxy)pyrimidin-4-yl)-2,8-diazaspiro[4.5]decane-3-carboxylate at 10 to 50 mg/kg, po administered as single dose; type: ADME, organism-based; conditions: in vivo
[17] = system: Mus musculus; assay: Drug level in mouse treated with (S)-ethyl 8-(2-amino-6-((R)-1-(3'-tert-butyl-5-chlorobiphenyl-2-yl)-2,2,2-trifluoroethoxy)pyrimidin-4-yl)-2,8-diazaspiro[4.5]decane-3-carboxylate at 10 to 50 mg/kg, po administered as single dose; type: ADME, organism-based; conditions: in vivo
[18] = system: Mus musculus; assay: Drug level in mouse treated with (S)-ethyl 8-(2-amino-6-((R)-1-(5-chloro-3'-sulfamoylbiphenyl-2-yl)-2,2,2-trifluoroethoxy)pyrimidin-4-yl)-2,8-diazaspiro[4.5]decane-3-carboxylate at 10 to 50 mg/kg, po administered as single dose; type: ADME, organism-based; conditions: in vivo

Nc1nc(O[C@H](c2ccc(Cl)cc2-c2ccccc2)C(F)(F)F)cc(N2CCC3(CC2)CN[C@H](C(=O)O)C3)n1 [RODATRISTAT]
CL [1]: 1.2% | Vdss [2]: 7.8 L/kg | t1/2 [3]: 12.1 h | IC50 [4]: 7 nM | clearance [5]: 1.2 mL/min/kg | CL [6]: 4% | half-life [7]: 4.8 h | Vd [8]: 0.24 L/kg | Drug metabolism [9]: Metabolite_Detected | IC50 [10]: 33 nM

CS(=O)(=O)c1cccc(-c2cc(Cl)ccc2[C@@H](Oc2cc(N3CCC4(CC3)CN[C@H](C(=O)O)C4)nc(N)n2)C(F)(F)F)c1
Drug metabolism [11]: Metabolite_Detected | IC50 [10]: 14 nM

CCOC(=O)[C@@H]1CC2(CCN(c3cc(O[C@H](c4ccc(Cl)cc4-c4cccc(S(C)(=O)=O)c4)C(F)(F)F)nc(N)n3)CC2)CN1
inhibition in vivo at 50 mg/kg [12]: 38% | Drug metabolism [13]: Metabolite_Detected

COc1cccc(-c2cc(Cl)ccc2[C@@H](Oc2cc(N3CCC4(CC3)CN[C@H](C(=O)O)C4)nc(N)n2)C(F)(F)F)c1
Drug metabolism [14]: Metabolite_Detected | IC50 [10]: 19 nM

Cc1cccc(-c2cc(Cl)ccc2[C@@H](Oc2cc(N3CCC4(CC3)CN[C@H](C(=O)O)C4)nc(N)n2)C(F)(F)F)c1
Drug metabolism [15]: Metabolite_Detected | IC50 [10]: 26 nM

Nc1nc(O[C@H](c2ccc(Cl)cc2-c2cccc(F)c2)C(F)(F)F)cc(N2CCC3(CC2)CN[C@H](C(=O)O)C3)n1
Drug metabolism [16]: Metabolite_Detected | IC50 [10]: 32 nM

CC(C)(C)c1cccc(-c2cc(Cl)ccc2[C@@H](Oc2cc(N3CCC4(CC3)CN[C@H](C(=O)O)C4)nc(N)n2)C(F)(F)F)c1
Drug metabolism [17]: Metabolite_Detected | IC50 [10]: 23 nM

Nc1nc(O[C@H](c2ccc(Cl)cc2-c2cccc(S(N)(=O)=O)c2)C(F)(F)F)cc(N2CCC3(CC2)CN[C@H](C(=O)O)C3)n1
Drug metabolism [18]: Metabolite_Detected | IC50 [10]: 11 nM
